# Source: ChEMBL document CHEMBL1201862, “PubChem BioAssay data set” (2004)
#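 In this assay, cells in 96-well plates receive the compound at five concentrations for 48 hours. Endpoints are linearly interpolated between the surrounding concentrations. At the GI50, growth is halved.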 The source made the active and inactive calls. Rule as the data show it: active = GI50 up to about 1.1 µM and inactive = higher.
# Experiments:
# Experiment in all cases: DTP human tumour cell line panel, 48 h
# 786-0 = test system: 786-0
# A498 = test system: A498
# A549 = test system: A549
# ACHN = test system: ACHN
# BT-549 = test system: BT-549
# CAKI-1 = test system: CAKI-1
# CCRF-CEM = test system: CCRF-CEM
# COLO 205 = test system: COLO 205
# DU-145 = test system: DU-145
# EKVX = test system: EKVX
# HCC 2998 = test system: HCC 2998
# HCT-116 = test system: HCT-116
# HCT-15 = test system: HCT-15
# HOP-62 = test system: HOP-62
# HOP-92 = test system: HOP-92
# HT-29 = test system: HT-29
# Hs-578T = test system: Hs-578T
# IGROV-1 = test system: IGROV-1
# K562 = test system: K562
# KM12 = test system: KM12
# LOX IMVI = test system: LOX IMVI
# M14 = test system: M14
# MCF7 = test system: MCF7
# MDA-MB-231 = test system: MDA-MB-231
# MDA-MB-435 = test system: MDA-MB-435
# MDA-N = test system: MDA-N
# MOLT-4 = test system: MOLT-4
# Malme-3M = test system: Malme-3M
# NCI-H226 = test system: NCI-H226
# NCI-H23 = test system: NCI-H23
# NCI-H460 = test system: NCI-H460
# NCI-H522 = test system: NCI-H522
# NCI/ADR-RES = test system: NCI/ADR-RES
# OVCAR-3 = test system: OVCAR-3
# OVCAR-4 = test system: OVCAR-4
# OVCAR-5 = test system: OVCAR-5
# OVCAR-8 = test system: OVCAR-8
# PC-3 = test system: PC-3
# RPMI-8226 = test system: RPMI-8226
# RXF 393 = test system: RXF 393
# SF-268 = test system: SF-268
# SF-295 = test system: SF-295
# SF-539 = test system: SF-539
# SK-MEL-28 = test system: SK-MEL-28
# SK-MEL-2 = test system: SK-MEL-2
# SK-MEL-5 = test system: SK-MEL-5
# SK-OV-3 = test system: SK-OV-3
# SN12C = test system: SN12C
# SNB-19 = test system: SNB-19
# SNB-75 = test system: SNB-75
# SR = test system: SR
# SW-620 = test system: SW-620
# T47D = test system: T47D
# TK-10 = test system: TK-10
# U-251 = test system: U-251
# UACC-257 = test system: UACC-257
# UACC-62 = test system: UACC-62
# UO-31 = test system: UO-31
# HL-60 = test system: HL-60
compound,measurement,setting,value
Cc1nc2c(=O)n(C)c(=O)nc-2n(CCO)c1C,GI50,786-0,> 100 µM (inactive)
same,GI50,A498,> 100 µM (inactive)
same,GI50,A549,> 100 µM (inactive)
same,GI50,ACHN,> 100 µM (inactive)
same,GI50,BT-549,> 100 µM (inactive)
same,GI50,CAKI-1,> 100 µM (inactive)
same,GI50,CCRF-CEM,> 100 µM (inactive)
same,GI50,COLO 205,> 100 µM (inactive)
same,GI50,DU-145,> 100 µM (inactive)
same,GI50,EKVX,> 100 µM (inactive)
same,GI50,HCC 2998,> 100 µM (inactive)
same,GI50,HCT-116,> 100 µM (inactive)
same,GI50,HCT-15,> 100 µM
same,GI50,HOP-62,> 100 µM (inactive)
same,GI50,HOP-92,> 100 µM (inactive)
same,GI50,HT-29,> 100 µM (inactive)
same,GI50,Hs-578T,> 100 µM (inactive)
same,GI50,IGROV-1,> 100 µM (inactive)
same,GI50,K562,> 100 µM (inactive)
same,GI50,KM12,> 100 µM (inactive)
same,GI50,LOX IMVI,> 100 µM (inactive)
same,GI50,M14,> 100 µM (inactive)
same,GI50,MCF7,> 100 µM (inactive)
same,GI50,MDA-MB-231,> 100 µM (inactive)
same,GI50,MDA-MB-435,> 100 µM (inactive)
same,GI50,MDA-N,> 100 µM (inactive)
same,GI50,MOLT-4,> 100 µM (inactive)
same,GI50,Malme-3M,> 100 µM (inactive)
same,GI50,NCI-H226,> 100 µM (inactive)
same,GI50,NCI-H23,> 100 µM (inactive)
same,GI50,NCI-H460,> 100 µM (inactive)
same,GI50,NCI-H522,> 100 µM (inactive)
same,GI50,NCI/ADR-RES,> 100 µM (inactive)
same,GI50,OVCAR-3,> 100 µM (inactive)
same,GI50,OVCAR-4,> 100 µM (inactive)
same,GI50,OVCAR-5,> 100 µM (inactive)
same,GI50,OVCAR-8,> 100 µM (inactive)
same,GI50,PC-3,> 100 µM (inactive)
same,GI50,RPMI-8226,> 100 µM (inactive)
same,GI50,RXF 393,> 100 µM (inactive)
same,GI50,SF-268,> 100 µM (inactive)
same,GI50,SF-295,> 100 µM (inactive)
same,GI50,SF-539,> 100 µM (inactive)
same,GI50,SK-MEL-28,> 100 µM (inactive)
same,GI50,SK-MEL-2,> 100 µM (inactive)
same,GI50,SK-MEL-5,> 100 µM (inactive)
same,GI50,SK-OV-3,> 100 µM (inactive)
same,GI50,SN12C,> 100 µM (inactive)
same,GI50,SNB-19,> 100 µM (inactive)
same,GI50,SNB-75,> 100 µM (inactive)
same,GI50,SR,> 100 µM (inactive)
same,GI50,SW-620,> 100 µM (inactive)
same,GI50,T47D,> 100 µM (inactive)
same,GI50,TK-10,> 100 µM (inactive)
same,GI50,U-251,> 100 µM (inactive)
same,GI50,UACC-257,> 100 µM (inactive)
same,GI50,UACC-62,> 100 µM (inactive)
same,GI50,UO-31,> 100 µM (inactive)
CCOC(=O)C[C@@H]1C2(C=C[C@@]13CO3)OCC(C)(C)CO2,GI50,A498,> 100 µM (inactive)
same,GI50,A549,> 100 µM (inactive)
same,GI50,BT-549,> 100 µM (inactive)
same,GI50,CAKI-1,> 100 µM (inactive)
same,GI50,CCRF-CEM,> 100 µM (inactive)
same,GI50,COLO 205,> 100 µM (inactive)
same,GI50,DU-145,> 100 µM (inactive)
same,GI50,EKVX,> 100 µM (inactive)
same,GI50,HCC 2998,> 100 µM (inactive)
same,GI50,HCT-116,> 100 µM (inactive)
same,GI50,HCT-15,> 100 µM
same,GI50,HL-60,> 100 µM (inactive)
same,GI50,HOP-62,> 100 µM (inactive)
same,GI50,HOP-92,> 100 µM (inactive)
same,GI50,HT-29,> 100 µM (inactive)
same,GI50,Hs-578T,> 100 µM (inactive)
same,GI50,IGROV-1,> 100 µM (inactive)
same,GI50,K562,> 100 µM (inactive)
same,GI50,LOX IMVI,> 100 µM (inactive)
same,GI50,M14,> 100 µM (inactive)
same,GI50,MCF7,> 100 µM (inactive)
same,GI50,MDA-MB-231,> 100 µM (inactive)
same,GI50,MDA-MB-435,> 100 µM (inactive)
same,GI50,MDA-N,> 100 µM (inactive)
same,GI50,MOLT-4,> 100 µM (inactive)
same,GI50,Malme-3M,> 100 µM (inactive)
same,GI50,NCI-H226,> 100 µM (inactive)
same,GI50,NCI-H23,> 100 µM (inactive)
same,GI50,NCI-H460,> 100 µM (inactive)
same,GI50,NCI/ADR-RES,> 100 µM (inactive)
same,GI50,OVCAR-3,> 100 µM (inactive)
same,GI50,OVCAR-4,8.2 µM (inactive)
same,GI50,OVCAR-5,> 100 µM (inactive)
same,GI50,OVCAR-8,> 100 µM (inactive)
same,GI50,PC-3,> 100 µM (inactive)
same,GI50,RXF 393,> 100 µM (inactive)
same,GI50,SF-268,> 100 µM (inactive)
same,GI50,SF-295,> 100 µM (inactive)
same,GI50,SF-539,> 100 µM (inactive)
same,GI50,SK-MEL-28,> 100 µM (inactive)
same,GI50,SK-MEL-2,> 100 µM (inactive)
same,GI50,SK-MEL-5,> 100 µM (inactive)
same,GI50,SK-OV-3,> 100 µM (inactive)
same,GI50,SN12C,> 100 µM (inactive)
same,GI50,SNB-75,> 100 µM (inactive)
same,GI50,SR,> 100 µM (inactive)
same,GI50,SW-620,> 100 µM (inactive)
same,GI50,T47D,> 100 µM (inactive)
same,GI50,TK-10,> 100 µM (inactive)
same,GI50,U-251,> 100 µM (inactive)
same,GI50,UACC-257,> 100 µM (inactive)
same,GI50,UACC-62,> 100 µM (inactive)
same,GI50,UO-31,> 100 µM (inactive)
